The source of these data is article PMC7354438 (Viruses, 2020).

Data set [1] has as its system hCoV-19/Norway/Trondheim-E9/2020. Briefly: Drug test: viability of SARS-CoV-2-infected Vero-E6 cells (CellTiter-Glo). The class given is cell-based. (In general: ATP-based viability assays read luminescence as a measure of living cells.)
Data set [2] is described as follows: Cytotoxicity in mock-infected Vero-E6 cells (CellTiter-Glo). The conditions noted are these: African green monkey.
Data set [3] in a line: Drug combination test, mock-infected Vero-E6 cells (CTG). The class given is cell-based. As to conditions: African green monkey, mock-infected Vero-E6 cells (control), read-out: Relative viability (%); for viability at 72 h, 0.008 uM: single drug 0.008 uM (other drug 0); for viability at 72 h, 0.04 uM: single drug 0.04 uM (other drug 0); for viability at 72 h, 0.2 uM: single drug 0.2 uM (other drug 0); for viability at 72 h, 1 uM: single drug 1.0 uM (other drug 0); for viability at 72 h, 5 uM: single drug 5.0 uM (other drug 0).

Data set [4] relates to viral genomic and sub-genomic RNAs. Put plainly: Gene expression analysis (RNA sequencing) of drug-treated infected Vero-E6 cells. Type of data set: cell-based, SARS-CoV-2. The conditions noted are these: moi 0.1, 24 h, 3 M nelfinavir, 5 M amodiaquine or both.
[5] abbreviates: Severe acute respiratory syndrome coronavirus 2, Vero C1008, infected Vero-E6 cells, moi 0.1, 72 h, Mean ± SD, n = 3.

Where only a bound is given, the exact number is not on record here.

Turning to `CC[C@H]1CN2CCc3cc(OC)c(OC)cc3[C@@H]2C[C@@H]1C[C@H]1NCCc2cc(OC)c(OC)cc21` [Emetine], the EC50 – broadly, the concentration giving half of the maximal effect – in data set [1] (Severe acute respiratory syndrome coronavirus 2, Vero C1008, 72 h) was < 10 nM. Moreover, the midpoint of cytotoxicity in data set [2], the CC50 at 72 h, lay at 700 ± 400 nM.

In the case of `Cc1c(O)cccc1C(=O)N[C@@H](CSc1ccccc1)[C@H](O)CN1C[C@H]2CCCC[C@H]2C[C@H]1C(=O)NC(C)(C)C` [Nelfinavir], the concentration for a half-maximal effect (EC50) in data set [1] (setting [5]) was 2100 ± 600 nM. Moreover, in data set [2] (mock-infected Vero-E6 cells), the half-maximal cytotoxic concentration (CC50) (in general, the concentration giving 50% cytotoxicity) at 72 h turned out to be 9700 ± 400 nM. Besides, in data set [3], the viability – broadly, the share of living cells, or the viability signal relative to a control – at 72 h, 0.008 uM was found to be 100%; the viability at 72 h, 0.04 uM stood at 100%; the viability at 72 h, 0.2 uM worked out at 96.5%; the viability at 72 h, 1 uM stood at 90.2%. Also, in data set [3], the viability at 72 h, 5 uM came out at 80.7%.

`CCN(CC)Cc1cc(Nc2ccnc3cc(Cl)ccc23)ccc1O` [Amodiaquine] returned an EC50 in data set [1] (setting [5]) of 4200 ± 200 nM. The “transcription of viral genomic and sub-genomic RNAs” value in data set [4] is “lowered the transcription of viral genomic and sub-genomic RNAs”. Moreover, in data set [2] (mock-infected Vero-E6 cells), the CC50 at 72 h is > 30000 nM. In data set [3], the viability at 72 h, 0.008 uM was 89.1%; the viability at 72 h, 0.04 uM amounted to 91.8%; the viability at 72 h, 0.2 uM amounted to 76.4%; the viability at 72 h, 1 uM turned out to be 76.6%. In data set [3], the viability at 72 h, 5 uM was determined as 71.5%.

`COC1=CC(c2cc3ccccc3[nH]2)=N/C1=C\c1[nH]c(C)cc1C` [Obatoclax (Mesylate), Obatoclax] displayed an EC50 in data set [1] (setting [5]) of 300 ± 100 nM. This compound also yielded a CC50 at 72 h in data set [2] (mock-infected Vero-E6 cells) of 2200 ± 1000 nM.
